Test [1] deals with planktonic and biofilm-associated Listeria monocytogenes and Salmonella typhimurium. Conditions: combined with streptomycin; cited from earlier work.
Test [2] deals with biofilms of K. pneumoniae. Conditions: cited from earlier work.
For test [3], the system named is Pseudomonas aeruginosa, Staphylococcus aureus and Candida albicans. Put plainly: Antimicrobial efficacy of liposome-encapsulated silver and tea tree oil. It is filed as cell-based. Conditions: singly and in combination, in a controlled release liposomal carrier system. The source says:
The aspects, advantages and/or other features of example embodiments of the present disclosure will become apparent to those skilled in the art, in view of the present detailed description. It should be apparent to those skilled in the art that the described embodiments of the present disclosure provided herein are merely exemplary and illustrative and not limiting. Numerous embodiments of modifications thereof are contemplated as falling within the scope of the present disclosure and equivalents thereto. Unless otherwise noted, technical terms are used according to conventional usage. Any publications mentioned in this specification are indicative of the level of those skilled in the art to which the invention pertains and are incorporated by reference in their entirety. […]

For the molecule `COc1ccc2cc3[n+](cc2c1OC)CCc1cc2c(cc1-3)OCO2` [berberine], the interaction with streptomycin entry in test [1] is given as “synergistic effect”.

`O=CC=Cc1ccccc1` [cinnamaldehyde]: the interaction with streptomycin entry in test [1] is “synergistic effect”.

With `O=C(O)c1cn(C2CC2)c2cc(N3CCNCC3)c(F)cc2c1=O` [ciprofloxacin], in test [2], the inhibition/eradication of biofilms result was “inhibit/eradicate biofilms”.

Take `C=CCc1ccc(O)c(OC)c1` [eugenol]: the interaction with streptomycin entry in test [1] is given as “synergistic effect”.

`Cc1ccc(C(C)C)c(O)c1` [thymol]: the interaction with streptomycin result in test [1] is listed as “synergistic effect”.

Take silver: in test [3], the “antimicrobial efficacy and effective concentration required” value was “can improve their antimicrobial efficacy as well as reduce the effective concentration required”.

The values are drawn from patent publication US20200397711A1, “MICROPARTICLE COMPOSITIONS FOR TREATMENT OF INFECTION OR DISEASE, METHODS OF MAKING THE SAME, AND METHODS OF TREATING SUBJECTS WITH MICROPARTICLE COMPOSITIONS” (priority 2019, published 2020).
